Measurements reported in patent publication US20140371237A1, “p19Arf, HMGA2 and MDM2 For Use in the Diagnosis and Treatment of Aberrant Cell Growth” (University of Bremen, priority 2010, published 2014).

How the values were obtained:
Assay type in all cases: cell-based, human
[1] = system: explants of fibroids and matching myometrium; assay: Treatment of explants of fibroids and matching myometrium with RITA, qRT-PCR; conditions: explants in short term culture, RITA 10 μM, 72 h
Procedure: For the experiments explants from a leiomyoma with a clonal complex chromosomal rearrangement involving chromosome 10 along with matching myometrium were taken during surgery and immediately transferred into sterile Hank's solution. For treatment with RITA (Biomol, Hamburg, Germany) tissue samples were minced into small pieces of approximately 0.5 cm diameter and incubated in medium 199 supplemented with 20% FCS and RITA (10 μM) for 72 h. As controls tissue explants were incubated in medium 199 supplemented with 20% FCS without RITA for 72 h. Relative quantification of transcription levels was carried out by real-time PCR analyses using the Applied Biosystems 7300 real-time PCR system (Applied Biosystems, Darmstadt, Germany). Commercially available gene expression assays (Applied Biosystems, Darmstadt, Germany) were used for quantification of mRNA of human BAX (Hs00180269_m1), p21 (Hs99999142), β-Gal (Hs01035162) and Ki67 (Hs00606991_m1). HPRT served as endogenous control. All qRT-PCR experiments were done in triplicate.

leiomyoma cells [2] = assay: Treatment of leiomyoma cells with RITA, qRT-PCR; conditions: cells of fibroids, 10 μM RITA, 72 h
Procedure: For treatment with RITA (Biomol, Hamburg, Germany) cells were plated in Leighton-tubes at a density of 200,000 on 10 mm×50 mm cover slips 24 h before incubation with RITA. Cells were treated with 1 μM and 10 μM RITA for 72 h. As controls cells were cultured in medium 199 supplemented with 20% FCS without RITA for 72 h. Relative quantification of transcription levels was carried out by real-time PCR analyses using the Applied Biosystems 7300 real-time PCR system (Applied Biosystems, Darmstadt, Germany). Commercially available gene expression assays (Applied Biosystems, Darmstadt, Germany) were used for quantification of mRNA of human BAX (Hs00180269_m1), p21 (Hs99999142), β-Gal (Hs01035162) and Ki67 (Hs00606991_m1). HPRT served as endogenous control. All qRT-PCR experiments were done in triplicate.

leiomyoma cells [3] = assay: Treatment of leiomyoma cells with Tenovin-1, qRT-PCR of p21 and BAX
Procedure: For treatment with Tenovin-1 (Biomol, Hamburg, Germany) cells were plated in Leighton-tubes at a density of 200,000 on 10 mm×50 mm cover slips 24 h before incubation with Tenovin-1. Cells were treated with 3 μM and 10 μM Tenovin-1 for 24 and for 72 h, respectively. As controls cells were cultured in medium 199 supplemented with 20% FCS without Tenovin-1 for 24 and for 72 h, respectively.

Row | SMILES | expression of BAX [1] | expression of p21 [1] | expression of BAX (leiomyoma cells [2]) | expression of Ki-67 (leiomyoma cells [2]) | expression of p21 (leiomyoma cells [2]) | expression of β-galactosidase (leiomyoma cells [2]) | expression of p21 (leiomyoma cells [3]; 3 μM and 10 μM, 24 h and 72 h, p<0.01 with both concentrations) | expression of BAX (leiomyoma cells [3]; significant at 24 h with 3 μM and 10 μM (p<0.001) and 72 h with 10 μM (p<0.01))
1 | OCc1ccc(-c2ccc(-c3ccc(CO)s3)o2)s1 [RITA, 2,5-bis-(5-Hydroxymethyl-2-thienyl)-furan] | significant increase | significant increase | significant increase | decrease | significant increase | significant increase |  | 
2 | CC(=O)Nc1ccc(NC(=S)NC(=O)c2ccc(C(C)(C)C)cc2)cc1 [Tenovin-1] |  |  |  |  |  |  | significant increase | significant increase
